Article PMC10004195, “Novel Dual-Target Kinase Inhibitors of EGFR and ALK Were Designed, Synthesized, and Induced Cell Apoptosis in Non-Small Cell Lung Cancer” (Molecules, 2023)
Read-outs that look alike come from different tables or passages of the source.

Key:
H1975 cells [1] = assay: Wound-healing (cell scratching) assay; type: cell-based, human; conditions: H1975, 48 h; PBS group about 70%
Procedure: The migration and invasion of tumor cells directly contribute to metastasis. Metastasis is the leading cause of death in cancer patients. To determine the ability of 9j to inhibit tumor cell migration, the cell scratching assay was performed. Following scratching, phase contrast pictures were taken of the scratched and healing cell monolayers.
H1975 cells were plated in a six-well culture dish at 5 × 10^4 cells/dish and grown for 24 h, and […]. The medium was then replaced with a serum-free 1640 medium and treated with compound 9j at the indicated concentrations for another 24 h or 48 h. After the samples were washed with phosphate buffer solution (PBS), the cell images were immediately detected by a Zeiss LSM 570 laser scanning confocal microscope (Carl Zeiss, Jena, Germany).

[2] = system: nontumorigenic cell lines
Source text: (§1) It is critical to evaluate the balance between the safety and efficacy of drugs for the development of new drugs; thus, we then conducted a cytotoxicity test on […] types of nontumorigenic cell lines from different origins, including LO2 (human normal liver cells), HK2 (human kidney proximal convoluted tubule epithelial cells), HLF (human embryonic lung fibroblast), 293A (human embryonic kidney cells), and HUVEC (human umbilical vein endothelial cells). […] In addition, we evaluated the compound’s safety in vivo by performing acute toxicity tests in mice, and 9j was injected intravenously at concentrations of 100 mg/kg, 150 mg/kg, and 300 mg/kg.
(§2) A total of 7000 cells per well were seeded in a 96-well plate with at least three technical replicates; then, exposed to different concentrations (10, 5, 1, 0.1, 0.05, 0.01 uM) of the test compounds for 72 h. After the treatment, CCK8 (Sigma, St. Louis, MO, USA) was added to each well under sterile conditions (to a final concentration of 10% of the total volume) and the plates were incubated for 2–4 h at 37 °C. Absorbance was measured at 450 nm in a microplate reader.

H1975 cells [3] = assay: Apoptosis assay by flow cytometry (annexin V / PI); type: cell-based, human; conditions: 48 h, control 6.07%
Source text: The death of cells occurs by apoptosis, and the uncontrolled division and multiplication of cells causes cancer. Inhibiting cellular apoptosis is primarily responsible for cancer cell survival, since cellular apoptosis is negatively correlated with cell growth. We then verified the antitumor effect of compound 9j by inducing apoptosis through flow cytometry.
To assay the number of apoptotic cells, cells were stained with allo-phycocyanin–annexin V (#550475, BD Pharmingen, Becton Drive Franklin Lakes, NJ, USA) for 15 min; then, they were washed and resuspended in 1:500 propidium iodide (#81845, Sigma-Aldrich, St. Louis, Mo, USA) viability marker, and acquired on LSRFortessa. Data were analyzed with FlowJo software. Annexin V+ cells were considered as apoptotic cells.

H2228 (EML4-ALK) cells = assay: CCK8 antiproliferative assay, H2228 cells; type: cell-based, human; conditions: Homo sapiens, NCI-H2228, 72 h, CCK8 assay, 72 h, H2228 (EML4-ALK); read-out: IC50 H2228
Source text: (§3) The human cancer cell lines (H1975, H2228) used in this study were purchased from the Guangzhou ginny ou biotechnology Co., Ltd. (Guangzhou, China). The human cancer cell lines (NCI-H522) used in this study were purchased from the Shenzhen Haodi Huatuo Biotechnology Co., LTD (Shenzhen, China). The human cancer cell lines (LOVO, HLF, BJ, LO2) used in this study were purchased from the Laboratory Animal Service Center at Sun Yat-sen University (Guangzhou, China). […] Cell lines LOVO, HLF, BJ, and LO2 were cultivated in DMEM containing 10% (v/v) heat-inactivated fetal bovine serum (FBS), 100 units/mL penicillin, and 100 μg/mL streptomycin.

EML4-ALK = EML4-ALK (Homo sapiens, UniProt Q9UM73); assay: Kinase ELISA assay, EML4-ALK; type: biochemical; conditions: read-out: IC50 against EML4-ALK
EML4-ALK, sequence (Q9UM73 1058-1620): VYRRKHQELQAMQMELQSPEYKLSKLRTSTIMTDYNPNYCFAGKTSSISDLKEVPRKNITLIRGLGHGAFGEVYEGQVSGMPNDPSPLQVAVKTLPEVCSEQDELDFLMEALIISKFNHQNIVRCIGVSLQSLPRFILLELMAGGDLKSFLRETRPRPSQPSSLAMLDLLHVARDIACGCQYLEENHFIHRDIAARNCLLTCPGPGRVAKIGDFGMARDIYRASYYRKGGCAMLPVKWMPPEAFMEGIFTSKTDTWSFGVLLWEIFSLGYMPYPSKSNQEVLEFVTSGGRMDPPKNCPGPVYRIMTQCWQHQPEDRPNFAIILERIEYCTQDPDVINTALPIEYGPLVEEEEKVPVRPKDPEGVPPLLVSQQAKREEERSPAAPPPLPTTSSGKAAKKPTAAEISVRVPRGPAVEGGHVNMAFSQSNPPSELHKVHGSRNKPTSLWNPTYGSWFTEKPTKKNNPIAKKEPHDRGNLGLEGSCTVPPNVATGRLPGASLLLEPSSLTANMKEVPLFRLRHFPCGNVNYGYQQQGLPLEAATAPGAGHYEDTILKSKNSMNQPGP
EML4-ALK, sequence (Q9HC35 1-496, further chain): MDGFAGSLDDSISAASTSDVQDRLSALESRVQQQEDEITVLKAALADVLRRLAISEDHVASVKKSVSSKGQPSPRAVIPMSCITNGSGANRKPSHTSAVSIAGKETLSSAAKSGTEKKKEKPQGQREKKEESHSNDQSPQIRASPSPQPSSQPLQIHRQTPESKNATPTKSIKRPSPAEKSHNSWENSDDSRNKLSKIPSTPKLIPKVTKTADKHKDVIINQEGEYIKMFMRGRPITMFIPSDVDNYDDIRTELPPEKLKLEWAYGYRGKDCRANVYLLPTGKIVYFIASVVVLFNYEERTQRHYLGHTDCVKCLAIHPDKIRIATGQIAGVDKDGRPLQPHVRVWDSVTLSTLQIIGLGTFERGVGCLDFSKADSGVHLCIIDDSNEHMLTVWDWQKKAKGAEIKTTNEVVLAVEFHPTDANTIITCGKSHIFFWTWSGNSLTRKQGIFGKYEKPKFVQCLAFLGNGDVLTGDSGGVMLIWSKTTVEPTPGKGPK
Procedure: (§4) Four kinases (EGFR, EGFR^L858R/T790M, ALK, and EML4-ALK) were tested using an ELISA assay. […] There was no effect on the wild-type EGFR or ALK kinases triggered by the compound. Consequently, the selection of the compound was good as both compounds balanced IC50 against EGFR and ALK, respectively. […] Following that, fluorescence assays were used to measure the phosphorylation of the EGFR and ALK protein affect with compound 9j at the cellular level. […] Next, WB assay was used to test the protein expression of H1975 and H2228 cells at the concentration of 5, 10, and 100 nM.

[4] = system: H1975 (EGFR T790M/L858R) cells; assay: CCK8 antiproliferative assay, H1975 cells; type: cell-based, human; conditions: Homo sapiens
Source text: as §3

EGFR wild-type kinase = EGFR wild-type kinase (Homo sapiens, UniProt P00533); assay: Kinase ELISA assay, wild-type EGFR; type: biochemical
EGFR wild-type kinase, sequence (P00533 25-1210): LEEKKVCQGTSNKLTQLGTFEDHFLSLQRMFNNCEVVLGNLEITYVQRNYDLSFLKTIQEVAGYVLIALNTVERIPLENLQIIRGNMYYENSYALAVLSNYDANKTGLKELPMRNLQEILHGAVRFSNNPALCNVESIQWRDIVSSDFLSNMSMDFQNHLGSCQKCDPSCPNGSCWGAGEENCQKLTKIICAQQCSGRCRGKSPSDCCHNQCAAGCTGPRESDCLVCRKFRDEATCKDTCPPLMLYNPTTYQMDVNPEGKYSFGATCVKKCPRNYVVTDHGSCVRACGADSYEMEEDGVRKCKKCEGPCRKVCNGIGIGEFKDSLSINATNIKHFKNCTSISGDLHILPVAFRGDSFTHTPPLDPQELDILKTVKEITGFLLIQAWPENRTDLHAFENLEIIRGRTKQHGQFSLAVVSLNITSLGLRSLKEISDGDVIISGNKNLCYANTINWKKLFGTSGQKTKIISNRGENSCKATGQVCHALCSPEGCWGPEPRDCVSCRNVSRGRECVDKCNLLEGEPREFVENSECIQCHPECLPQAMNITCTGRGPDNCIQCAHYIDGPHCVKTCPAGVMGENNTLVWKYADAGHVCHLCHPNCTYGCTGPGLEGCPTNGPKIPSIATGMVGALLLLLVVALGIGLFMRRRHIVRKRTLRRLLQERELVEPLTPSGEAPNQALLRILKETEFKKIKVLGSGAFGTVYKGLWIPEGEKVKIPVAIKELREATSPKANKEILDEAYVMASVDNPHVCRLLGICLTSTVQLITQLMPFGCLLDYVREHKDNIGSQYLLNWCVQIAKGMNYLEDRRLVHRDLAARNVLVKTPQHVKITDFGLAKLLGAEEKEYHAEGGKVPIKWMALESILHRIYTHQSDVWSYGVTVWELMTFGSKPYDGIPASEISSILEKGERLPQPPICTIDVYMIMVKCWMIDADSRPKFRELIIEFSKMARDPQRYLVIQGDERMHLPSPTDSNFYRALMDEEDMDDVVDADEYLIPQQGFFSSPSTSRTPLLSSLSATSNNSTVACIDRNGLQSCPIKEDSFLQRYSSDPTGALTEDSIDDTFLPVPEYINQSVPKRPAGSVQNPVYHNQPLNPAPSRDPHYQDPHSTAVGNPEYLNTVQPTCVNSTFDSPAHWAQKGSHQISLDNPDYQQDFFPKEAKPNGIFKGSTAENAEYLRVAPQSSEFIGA
Procedure: as §4

p-ERK = assay: Western blot, p-ERK; type: cell-based, human; conditions: WB, 5, 10 and 100 nM, 3 h treatment
Procedure: as §4
H1975 (H2228) cells seeded in 60 mm dishes at a density of 5 × 10^5 cells/well were incubated with or without compound 9j (0, 5, 10, 100 nM) for 2–4 h. After treatment, cells were stained as previously described.

[5] = system: HUVEC (human umbilical vein endothelial cells); assay: Cytotoxicity test on nontumorigenic cells, HUVEC; type: cell-based
Source text: as §1, §2

[6] = system: LO2 (human normal liver cells); assay: Cytotoxicity test on nontumorigenic cells, LO2; type: cell-based
Source text: as §1, §2

ALK wild-type kinase = ALK wild-type kinase (Homo sapiens, UniProt Q9UM73); assay: Kinase ELISA assay, wild-type ALK; type: biochemical
ALK wild-type kinase, sequence (Q9UM73 19-1620): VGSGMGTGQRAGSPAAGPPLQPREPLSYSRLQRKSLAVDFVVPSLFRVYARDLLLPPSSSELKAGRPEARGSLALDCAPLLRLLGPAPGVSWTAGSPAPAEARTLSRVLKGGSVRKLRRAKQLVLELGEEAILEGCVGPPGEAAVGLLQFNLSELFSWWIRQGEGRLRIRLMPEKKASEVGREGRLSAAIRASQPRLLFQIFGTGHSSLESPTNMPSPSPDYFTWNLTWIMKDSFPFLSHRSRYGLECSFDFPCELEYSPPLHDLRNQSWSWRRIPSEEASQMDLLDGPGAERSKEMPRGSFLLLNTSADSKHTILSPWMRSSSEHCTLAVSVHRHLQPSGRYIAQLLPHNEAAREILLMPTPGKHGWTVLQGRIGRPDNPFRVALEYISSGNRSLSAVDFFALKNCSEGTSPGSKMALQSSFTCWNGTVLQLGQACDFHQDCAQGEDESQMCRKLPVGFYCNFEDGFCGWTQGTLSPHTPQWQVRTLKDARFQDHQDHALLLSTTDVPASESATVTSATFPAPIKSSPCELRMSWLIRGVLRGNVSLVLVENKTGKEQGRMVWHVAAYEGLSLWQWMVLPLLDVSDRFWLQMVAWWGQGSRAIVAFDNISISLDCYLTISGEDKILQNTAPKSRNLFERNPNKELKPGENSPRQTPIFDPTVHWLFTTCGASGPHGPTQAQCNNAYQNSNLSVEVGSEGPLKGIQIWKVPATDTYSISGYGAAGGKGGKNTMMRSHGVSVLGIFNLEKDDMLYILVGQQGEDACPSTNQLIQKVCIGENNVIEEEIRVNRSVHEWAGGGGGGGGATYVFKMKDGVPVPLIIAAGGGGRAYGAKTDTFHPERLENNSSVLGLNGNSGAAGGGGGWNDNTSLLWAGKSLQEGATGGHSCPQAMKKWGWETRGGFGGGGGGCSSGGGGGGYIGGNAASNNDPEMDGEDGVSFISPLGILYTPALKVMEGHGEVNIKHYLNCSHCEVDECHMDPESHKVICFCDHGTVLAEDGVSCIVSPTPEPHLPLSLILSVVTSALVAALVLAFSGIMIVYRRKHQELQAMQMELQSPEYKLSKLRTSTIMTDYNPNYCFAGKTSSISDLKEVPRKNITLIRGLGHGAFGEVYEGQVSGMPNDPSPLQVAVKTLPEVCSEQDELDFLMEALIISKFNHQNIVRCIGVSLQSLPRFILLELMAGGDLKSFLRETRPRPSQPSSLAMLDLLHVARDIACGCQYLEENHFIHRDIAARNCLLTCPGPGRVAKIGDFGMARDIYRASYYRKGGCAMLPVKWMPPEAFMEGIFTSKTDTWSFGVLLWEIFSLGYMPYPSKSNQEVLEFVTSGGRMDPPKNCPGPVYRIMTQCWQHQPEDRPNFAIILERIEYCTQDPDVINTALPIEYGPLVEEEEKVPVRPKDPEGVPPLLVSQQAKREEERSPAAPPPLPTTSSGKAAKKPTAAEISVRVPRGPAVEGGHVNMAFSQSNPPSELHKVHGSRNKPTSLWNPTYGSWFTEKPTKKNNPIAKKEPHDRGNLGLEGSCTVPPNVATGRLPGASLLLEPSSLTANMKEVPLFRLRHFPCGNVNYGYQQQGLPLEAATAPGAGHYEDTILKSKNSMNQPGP
Procedure: as §4

[7] = system: 293A (human embryonic kidney cells); assay: Cytotoxicity test on nontumorigenic cells, 293A; type: cell-based
Source text: as §1, §2

`C=CC(=O)Nc1cc(Nc2ncc(Cl)c(Nc3ccc(Cl)cc3[S+]([O-])C(C)C)n2)c(OC)cc1C1CCN(C)CC1` (stereo not drawn) [9j, N-(5-((5-Chloro-4-((4-chloro-2-(isopropylsulfinyl)phenyl)amino)pyrimidin-2-yl)amino)-4-methoxy-2-(1-methylpiperidin-4-yl)phenyl)acrylamide] was tested, and the scratch healing rate (H1975 cells [1]) was “clearly decreased”, the “toxicity toward the nontumorigenic cell lines” value [2] was “very little apparent toxicity” and the apoptotic rate (H1975 cells [3]; 10 nM) was 12.7%. It also gave an apoptotic rate (H1975 cells [3]; 50 nM) of 26.8%, an apoptotic rate (H1975 cells [3]; 100 nM) of 47.67% and an IC50 (H2228 (EML4-ALK) cells) of 81.8 ± 20 nM. For the same compound, the IC50 (EML4-ALK) was 56.3 ± 0.3 nM, the IC50 ([4]; NCI-H1975, 72 h, CCK8 assay, 72 h, H1975 (EGFR T790M/L858R), read-out: IC50 H1975) was 78.3 ± 30 nM and the IC50 ([4]; NCI-H1975, H1975, mean ± SE, unit inferred, read-out: IC50 H1975 (Table 2)) was 78.3 ± 30 nM. The IC50 (EGFR wild-type kinase) was 236 ± 27 nM, the “expression of p-ERK” value (p-ERK) was “inhibited” and the “Selectivity Ratio (IC50 human normal cells)/(IC50 H1975), HUVEC” value ([5]; HUVEC vs H1975) was 273.8. For the same compound, the IC50 ([5]; Homo sapiens, HUVEC, mean ± SE, read-out: Toxicity to normal cells, IC50 HUVEC) was 21360 ± 60 nM, the IC50 ([6]; Homo sapiens, LO2, mean ± SE, read-out: Toxicity to normal cells, IC50 LO2) was 23960 ± 30 nM and the “Selectivity Ratio (IC50 human normal cells)/(IC50 H1975), LO2” value ([6]; LO2 vs H1975) was 306.1. The IC50 (ALK wild-type kinase) was 130 ± 15 nM, the “Selectivity Ratio (IC50 human normal cells)/(IC50 H1975), 293A” value ([7]; 293A vs H1975) was 255.5 and the IC50 ([7]; Homo sapiens, 293A, mean ± SE, read-out: Toxicity to normal cells, IC50 293A) was 20000 ± 50 nM.
